Assay results from ChEMBL document CHEMBL6114933, “Discovery of 3-acyl-2-anilino-1,4-dihydroquinolin-4-one derivatives as potential inhibitors of methicillin-resistant Staphylococcus aureus” (Bioorg Med Chem Lett, 2025).
In brackets after ≈: the same amount, converted by molar mass.

Assays:
[1] = system: Staphylococcus aureus; test: Antibacterial activity against drug-resistant Staphylococcus aureus USA300 JE2 assessed as inhibition of bacterial growth; type: functional
[2] = system: Staphylococcus aureus; test: Ex vivo antibacterial activity against methicillin-resistant Staphylococcus aureus assessed as inhibition of bacterial growth by cell infection model; type: functional
[3] = system: Staphylococcus aureus; test: Antibacterial activity against drug-sensitive Staphylococcus aureus ATCC25923 assessed as inhibition of bacterial growth; type: functional
[4] = AUC (0 to infinity) in rat at 2 mg/kg, iv; type: ADME, organism-based; details: in vivo
[5] = Oral bioavailability in rat at 5 mg/kg; type: ADME, organism-based; details: in vivo
[6] = AUC(0 to 24 hrs) in rat at 2 mg/kg, iv; type: ADME, organism-based; details: in vivo
[7] = Cytotoxicity against HFL1 cells; type: toxicity, cell-based; details: human
[8] = Cytotoxicity against mouse L929 cells; type: toxicity, cell-based
[9] = Metabolic stability in rat liver microsomes assessed as parent compound remaining measured after 30 mins; type: ADME, Microsome; details: read-out: Stability
[10] = Cmax in rat at 5 mg/kg, po or 2 mg/kg, iv; type: ADME, organism-based; details: in vivo
[11] = Cytotoxicity against mouse NIH3T3 cells; type: toxicity, cell-based
[12] = Cytotoxicity against African green monkey Vero cells; type: toxicity, cell-based, Chlorocebus sabaeus
[13] = Half life in rat at 2 mg/kg, iv; type: ADME, organism-based; details: in vivo
[14] = Cytotoxicity against CHO-K1 cells; type: toxicity, cell-based, Cricetulus griseus; details: Chinese hamster
[15] = Metabolic stability in human liver microsomes assessed as parent compound remaining measured after 30 mins; type: ADME, Microsome; details: read-out: Stability
[16] = Cytotoxicity against human HepG2 cells; type: toxicity, cell-based
[17] = molecular target: Voltage-gated inwardly rectifying potassium channel KCNH2 (Homo sapiens, UniProt Q12809); test: Inhibition of hERG by binding assay; type: toxicity
Chain of Voltage-gated inwardly rectifying potassium channel KCNH2 (Q12809 whole entry): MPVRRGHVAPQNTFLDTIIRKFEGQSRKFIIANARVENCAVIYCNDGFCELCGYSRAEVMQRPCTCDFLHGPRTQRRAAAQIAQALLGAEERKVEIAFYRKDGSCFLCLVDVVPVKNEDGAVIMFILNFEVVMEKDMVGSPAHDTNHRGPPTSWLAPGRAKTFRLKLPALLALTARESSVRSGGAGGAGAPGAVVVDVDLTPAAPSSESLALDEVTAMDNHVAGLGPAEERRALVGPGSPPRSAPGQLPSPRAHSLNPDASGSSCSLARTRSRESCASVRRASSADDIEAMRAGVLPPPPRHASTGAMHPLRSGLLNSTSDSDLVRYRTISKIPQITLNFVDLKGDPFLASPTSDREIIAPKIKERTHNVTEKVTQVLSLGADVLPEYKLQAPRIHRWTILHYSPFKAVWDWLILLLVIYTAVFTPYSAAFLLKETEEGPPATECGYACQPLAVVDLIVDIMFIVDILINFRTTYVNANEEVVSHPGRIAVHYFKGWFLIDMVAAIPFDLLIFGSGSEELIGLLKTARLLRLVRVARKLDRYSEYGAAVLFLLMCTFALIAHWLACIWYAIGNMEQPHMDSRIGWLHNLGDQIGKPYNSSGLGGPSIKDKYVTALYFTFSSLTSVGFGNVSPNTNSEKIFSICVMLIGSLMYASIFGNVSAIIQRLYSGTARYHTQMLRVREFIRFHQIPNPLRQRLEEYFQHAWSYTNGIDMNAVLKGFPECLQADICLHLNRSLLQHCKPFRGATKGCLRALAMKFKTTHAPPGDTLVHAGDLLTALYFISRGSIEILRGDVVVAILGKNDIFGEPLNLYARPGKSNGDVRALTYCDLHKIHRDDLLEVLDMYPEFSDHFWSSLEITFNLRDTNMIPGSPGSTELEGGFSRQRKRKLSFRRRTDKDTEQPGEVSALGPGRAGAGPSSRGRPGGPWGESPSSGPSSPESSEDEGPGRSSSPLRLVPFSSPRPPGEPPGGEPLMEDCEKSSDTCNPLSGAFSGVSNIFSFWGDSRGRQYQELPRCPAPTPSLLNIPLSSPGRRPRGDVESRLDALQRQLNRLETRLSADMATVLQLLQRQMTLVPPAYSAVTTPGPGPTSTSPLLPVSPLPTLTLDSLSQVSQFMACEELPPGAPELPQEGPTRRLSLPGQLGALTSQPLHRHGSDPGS

[18] = Clearance in rat at 2 mg/kg, iv; type: ADME, organism-based; details: in vivo
[19] = Metabolic stability in mouse liver microsomes parent compound remaining measured after 30 mins; type: ADME, Microsome; details: read-out: Stability

Compound	MIC50 [1] [µM]	MIC50 [2] [µM]	MIC50 [3] [µM]	also measured
CC(=O)c1c(Nc2ccc(F)c(F)c2F)[nH]c2c(F)cc(F)cc2c1=O	0.95 (≈ 0.35 µg/mL)	6.79 (≈ 2.5 µg/mL)	1.11 (≈ 0.409 µg/mL)	–
CC(=O)c1c(NCc2ccc(F)cc2)[nH]c2c(F)cc(F)cc2c1=O	> 20	–	> 20	–
COc1ccc(Nc2[nH]c3c(F)cc(F)cc3c(=O)c2C(C)=O)cc1	> 20	–	> 20	–
CC(C)C(=O)c1c(Nc2ccc(F)cc2F)[nH]c2c(Cl)cc(Cl)c(Cl)c2c1=O	0.06 (≈ 0.0267 µg/mL)	3.9 (≈ 1.74 µg/mL)	0.05 (≈ 0.0223 µg/mL)	AUC [4]: 175.71 uM.hr/ml; bioavailability [5]: > 99.9%; AUC [6]: 31.97 uM.hr/ml; IC50 [7]: 10.6 µM; IC50 [8]: > 100 µM; remaining at 0.5 h [9]: 81.9%; Cmax [10]: 5.91 uM/ml; IC50 [11]: 67.5 µM; IC50 [12]: 61.3 µM; half-life [13]: 25.6 h; IC50 [14]: 4.9 µM; remaining at 0.5 h [15]: 95.6%; IC50 [16]: > 256 µM; IC50 [17]: 60 µM; clearance [18]: 0.5 mL/min/kg; remaining at 0.5 h [19]: 68.1%
CC(=O)c1c(N2CCCCC2)[nH]c2c(F)cc(F)cc2c1=O	> 20	–	> 20	–
CC(C)C(=O)c1c(Nc2ccc(F)cc2F)[nH]c2c(F)cc(F)cc2c1=O	1.27 (≈ 0.48 µg/mL)	10 (≈ 3.79 µg/mL)	1.36 (≈ 0.515 µg/mL)	–
CC(=O)c1c(N2CCOCC2)[nH]c2c(F)cc(F)cc2c1=O	> 20	–	> 20	–
CC(C)C(=O)c1c(Nc2ccc(F)c(F)c2F)[nH]c2c(F)cc(F)cc2c1=O	0.2 (≈ 0.0793 µg/mL)	0.71 (≈ 0.281 µg/mL)	0.18 (≈ 0.0713 µg/mL)	AUC [4]: 28.9 uM.hr/ml; bioavailability [5]: > 55.8%; AUC [6]: 28.3 uM.hr/ml; Cmax [10]: 2.32 uM/ml; IC50 [12]: 86.1 µM; IC50 [16]: 63.7 µM; IC50 [17]: > 100 µM; CL ([18]; iv, 2 mg/kg): 1.2 mL/min/kg
CC(=O)c1c(NCc2ccc(F)cc2F)[nH]c2c(F)cc(F)cc2c1=O	> 20	–	> 20	–
CC(=O)c1c(Nc2ccc(F)cc2F)[nH]c2c(F)cc(F)cc2c1=O	3.84 (≈ 1.35 µg/mL)	9.48 (≈ 3.32 µg/mL)	4.41 (≈ 1.54 µg/mL)	–
CC(C)C(=O)c1c(Nc2ccc(F)c(F)c2F)[nH]c2c(Cl)cc(Cl)c(Cl)c2c1=O	0.05 (≈ 0.0232 µg/mL)	0.57 (≈ 0.264 µg/mL)	0.04 (≈ 0.0185 µg/mL)	IC50 [16]: 31.2 µM
COc1ccc(CNc2[nH]c3c(F)cc(F)cc3c(=O)c2C(C)=O)cc1	> 20	–	> 20	–
CCN(CC)CCCC(C)Nc1[nH]c2c(F)cc(F)cc2c(=O)c1C(C)=O (centres undefined)	> 20	–	> 20	–
CC(=O)c1c(Nc2ccc(Cl)cc2Cl)[nH]c2c(Cl)ccc(C(F)(F)F)c2c1=O	0.41 (≈ 0.184 µg/mL)	15.2 (≈ 6.83 µg/mL)	0.44 (≈ 0.198 µg/mL)	–
CC(C)C(=O)c1c(Nc2ccc(Cl)cc2Cl)[nH]c2c(F)cc(F)cc2c1=O	0.19 (≈ 0.0781 µg/mL)	1.45 (≈ 0.596 µg/mL)	0.2 (≈ 0.0822 µg/mL)	IC50 [16]: 39 µM
CC(=O)c1c(Nc2ccc(Cl)cc2Cl)[nH]c2c(Cl)cc(Cl)c(Cl)c2c1=O	0.27 (≈ 0.122 µg/mL)	34.8 (≈ 15.7 µg/mL)	0.28 (≈ 0.126 µg/mL)	–
CC(=O)c1c(Nc2ccc(Cl)cc2Cl)[nH]c2c(F)cc(F)cc2c1=O	0.39 (≈ 0.149 µg/mL)	10.1 (≈ 3.88 µg/mL)	0.41 (≈ 0.157 µg/mL)	–
CC(=O)c1c(Nc2cc(F)cc(F)c2)[nH]c2c(F)cc(F)cc2c1=O	> 20	–	> 20	–
CC[C@H]1OC(=O)[C@H](C)[C@@H](O[C@H]2C[C@@](C)(OC)[C@@H](O)[C@H](C)O2)[C@H](C)[C@@H](O[C@@H]2O[C@H](C)C[C@H](N(C)C)[C@H]2O)[C@](C)(O)C[C@@H](C)C(=O)[C@H](C)[C@@H](O)[C@]1(C)O [ERYTHROMYCIN]	–	–	0.74 (≈ 0.543 µg/mL)	–
CN[C@H](CC(C)C)C(=O)N[C@H]1C(=O)N[C@@H](CC(N)=O)C(=O)N[C@H]2C(=O)N[C@H]3C(=O)N[C@H](C(=O)N[C@H](C(=O)O)c4cc(O)cc(O)c4-c4cc3ccc4O)[C@H](O)c3ccc(c(Cl)c3)Oc3cc2cc(c3O[C@@H]2O[C@H](CO)[C@@H](O)[C@H](O)[C@H]2O[C@H]2C[C@](C)(N)[C@H](O)[C@H](C)O2)Oc2ccc(cc2Cl)[C@H]1O [VANCOMYCIN]	–	–	1.97 (≈ 2.86 µg/mL)	–
